Reference: US9968649B2, “Vasopressin formulations for use in treatment of hypotension” (Par Pharmaceutical, Inc., priority 2015, dated 2018)
Several values for one entry are separate records, joined by “and”; a condition that tells them apart may be missing. Equal values may be shown once.

Test: Effect of temperature on vasopressin formulations: HPLC vasopressin assay and impurities on storage (Example 8)
Type: physicochemical
Conditions: inverted, 5° C.
Experimental: To analyze degradation products of vasopressin that can be present in an illustrative formulation of vasopressin, gradient HPLC was performed to separate vasopressin from related peptides and formulation components. TABLE 2 below depicts the results of the experiment detailing the chemical formula, relative retention time (RRT), molar mass, and structure of vasopressin and detected impurities.
Vasopressin was detected in the eluent using UV absorbance. The concentration of vasopressin in the sample was determined by the external standard method, where the peak area of vasopressin in sample injections was compared to the peak area of vasopressin reference standards in a solution of known concentration. The concentrations of related peptide impurities in the sample were also determined using the external standard method, using the vasopressin reference standard peak area and a unit relative response factor. An impurities marker solution was used to determine the relative retention times of identified related peptides at the time of analysis.
To test the effect of temperature on the stability of vasopressin formulation, solutions containing 20 units/mL vasopressin and chlorobutanol, adjusted to pH 3.5 with acetic acid, were prepared. One mL of each vasopressin formulations was then filled into 3 cc vials. Each Vasopressin Formulation was stored either inverted or upright for at least three months, up to 24 months, at: (i) 5° C.; (ii) 25° C. and 60% relative humidity; or (iii) 40° C. and 75% humidity, and the amount of vasopressin (U/mL) and % total impurities were measured periodically. TABLES 7-12 below display the results of the experiments at 5° C. The results of the experiments at 25° C. are included in TABLES 13-18. All of the experiments were performed in triplicate. The results of the experiments at 40° C. are included in TABLES 19-24. For each temperature tested, three lots of the vasopressin formulation were stored for 24 months (5° C. and 25° C.) and 3 months (40° C.), and measurements were taken at regular intervals during the testing periods. “NMT” as used in the tables denotes “not more than.”
Experiments were also conducted on the same samples above over the course of the experiments to measure the amount of individual impurities in the samples, pH of the samples, chlorobutanol content, particulate matter, antimicrobial effectiveness, and bacterial endotoxin levels (TABLES 25-42). (NR=no reading; ND=not determined; UI=unidentified impurity).

With `NC(=O)CC[C@@H]1NC(=O)[C@H](Cc2ccccc2)NC(=O)[C@H](Cc2ccc(O)cc2)NC(=O)[C@@H](N)CSSC[C@@H](C(=O)N2CCC[C@H]2C(=O)N[C@@H](CCCN=C(N)N)C(=O)NCC(N)=O)NC(=O)[C@H](CC(N)=O)NC1=O` [Vasopressin, Cyclo (1-6) L-Cysteinyl-L-Tyrosyl-L-Phenylalanyl-L-Glutaminyl-L-Asparaginyl-L-Cysteinyl-L-Prolyl-L-Arginyl-L-Glycinamide] the “Related Substances: UI-0.83-0.84” value (6 months) was 0.1%, the “Related Substances: UI-1.02-1.03” value (6 months) was 0.2% and the “Related Substances: UI-1.03” value (6 months) was 0.2%. For the same molecule, the “Vasopressin (AVP) Assay” value (6 months) was 19.5 U/mL and 19.9 U/mL and 19.8 U/mL, the “Total Impurities” value (6 months, listed as AVP) was 2.2% and 2.1% and 2.0% and the “Vasopressin (AVP) Assay” value (6 months, listed as AVP) was 19.5 U/mL and 19.9 U/mL and 19.8 U/mL. For the same molecule, the “Related Substances: Acetyl-AVP” value (9 months) was 0.2% and 0.3%, the “Related Substances: Asp5-AVP” value (9 months) was 0.1% and the “Related Substances: SEQ ID NO.: 2” value (9 months) was 0.6%. The “Related Substances: SEQ ID NO.: 4” value (9 months) was 0.7%, the “Related Substances: SEQ ID NO.: 10” value (9 months) was 0.3% and the “Related Substances: UI-0.75-0.78” value (9 months) was 0.1%. For the same molecule, the “Related Substances: UI-1.02-1.03” value (9 months) was 0.2%, the “Related Substances: UI-1.03” value (9 months) was 0.2% and the “Vasopressin (AVP) Assay” value (9 months) was 19.4 U/mL and 19.7 U/mL. For the same molecule, the “Total Impurities” value (9 months, listed as AVP) was 2.3% and 2.1%, the “Vasopressin (AVP) Assay” value (9 months, listed as AVP) was 19.4 U/mL and 19.7 U/mL and the “Related Substances: Acetyl-AVP” value (12 months) was 0.3%. The “Related Substances: Asp5-AVP” value (12 months) was 0.2% and 0.1%, the “Related Substances: SEQ ID NO.: 2” value (12 months) was 0.7% and 0.6% and the “Related Substances: SEQ ID NO.: 4” value (12 months) was 0.8% and 0.7%. For the same molecule, the “Related Substances: SEQ ID NO.: 10” value (12 months) was 0.4%, the “Related Substances: UI-0.75-0.78” value (12 months) was 0.2% and the “Related Substances: UI-1.02-1.03” value (12 months) was 0.3%. For the same molecule, the “Related Substances: UI-1.03” value (12 months) was 0.3%, the “Vasopressin (AVP) Assay” value (12 months) was 19.5 U/mL and 19.8 U/mL and 19.9 U/mL and the “Total Impurities” value (12 months, listed as AVP) was 2.6% and 2.7% and 2.4%. The “Vasopressin (AVP) Assay” value (12 months, listed as AVP) was 19.5 U/mL and 19.8 U/mL and 19.9 U/mL, the “Related Substances: Acetyl-AVP” value (18 months) was 0.3% and the “Related Substances: Asp5-AVP” value (18 months) was 0.2%. For the same molecule, the “Related Substances: SEQ ID NO.: 2” value (18 months) was 0.8%, the “Related Substances: SEQ ID NO.: 4” value (18 months) was 0.9% and 0.8% and the “Related Substances: SEQ ID NO.: 10” value (18 months) was 0.4%. The “Related Substances: UI-0.75-0.78” value (18 months) was 0.2%, the “Related Substances: UI-1.02-1.03” value (18 months) was 0.3% and the “Related Substances: UI-1.03” value (18 months) was 0.3%. For the same molecule, the “Vasopressin (AVP) Assay” value (18 months) was 19.4 U/mL and 19.7 U/mL and 19.8 U/mL, the “Total Impurities” value (18 months, listed as AVP) was 2.9% and 2.6% and the “Vasopressin (AVP) Assay” value (18 months, listed as AVP) was 19.4 U/mL and 19.7 U/mL and 19.8 U/mL. The “Related Substances: Acetyl-AVP” value (24 months) was 0.3%, the “Related Substances: Asp5-AVP” value (24 months) was 0.2% and the “Related Substances: SEQ ID NO.: 2” value (24 months) was 0.9% and 0.8%. For the same molecule, the “Related Substances: SEQ ID NO.: 4” value (24 months) was 1.0% and 0.9%, the “Related Substances: SEQ ID NO.: 10” value (24 months) was 0.3% and the “Related Substances: UI-0.75-0.78” value (24 months) was 0.2%. The “Related Substances: UI-0.83-0.84” value (24 months) was 0.1%, the “Related Substances: UI-1.02-1.03” value (24 months) was 0.3% and 0.2% and the “Related Substances: UI-1.03” value (24 months) was 0.2%. The “Related Substances: UI-1.67” value (24 months) was 0.2%, the “Vasopressin (AVP) Assay” value (24 months) was 19.3 U/mL and 19.5 U/mL and the “Total Impurities” value (24 months, listed as AVP) was 2.9% and 2.8%. The “Vasopressin (AVP) Assay” value (24 months, listed as AVP) was 19.3 U/mL and 19.5 U/mL.
